Data: US8586622B2, “Laminin-332 product on stimulating composition” (Shiseido Company, Ltd., priority 2009, dated 2013)
Like-named read-outs stand apart in the source and are kept apart here.

Experiments:
[1] = system: laminin-332 production in HaCaT cells; assay: Laminin-332 concentration in HaCaT culture supernatant after addition of various amino acids, Example 2; assay type: cell-based, human; settings: for stimulation of the production of laminin-332 (in words) / concentration of laminin-332 in the culture supernatant: HaCaT cells; for stimulation of the production of laminin-332 (in words): 10 nM, 100 nM, 1000 nM; for concentration of laminin-332 in the culture supernatant: 24 hours, negative control 1.5-1.8 ng/mL; for effect on stimulating production of laminin-332 (conclusion in words): Examples 1 and 2, KC and HaCaT cells
Description: (§1) After completing the cell culture, culture medium was collected and centrifuged at 3000 rpm for five minutes. Concentration of laminin-332 in the supernatant was measured by ELISA (Amano, S., et al., J. Immunol. Methods, 224:161 (1999)). The ELISA used was sandwich type which utilizes biotinylated conjugate of BM165, i.e., a monoclonal antibody against α (alpha) 3 chain of laminin-5, and 6F12, i.e., a monoclonal antibody against β (beta)3 chain of laminin-5, and detection was carried out by utilizing avidin D labeled with a horseradish peroxidase (Vector Laboratories, Catalogue No. A-2004). PBS was used as a control.
Cell culture was carried out in the same manner as the Example 1 by using HaCaT cells. After that, the medium was switched to the standard medium added with amino acids such as L- or D-alanine, L- or D-hydroxyproline, L- or D-aspartic acid, L- or D-asparagine, L- or D-proline, or L- or D-serine with the concentration of 10 nM, 100 nM, or 1000 nM, and cultured for 24 hours. The standard medium to which no amino acid had been added was used as a negative control. […] The production amount of laminin-332 was measured in the same manner as the Example 1.
The vertical line of the graph in FIG. 7 represents the concentrations (ng/mL) of laminin-332 in the culture supernatant in each well. The error bars for each experimental condition indicate the standard deviations of experimentally measured values obtained by repeating the experiment four times under the identical condition.

[2] = system: laminin-332 production in HaCaT cells; assay: Laminin-332 production in HaCaT cells (sandwich ELISA, relative to cell number), Example 1; assay type: cell-based, human; settings: 1 μM; for relative value of laminin-332 concentration compared to the number of cells: 24 hours, negative control 0.04
Description: as §1
The vertical line of the graph in FIG. 5 represents, the relative values of laminin-332 concentration compared to the number of cells that are present in culture supernatant in each well. The error bars for each experimental condition indicate the standard deviations of experimentally measured values obtained by repeating the experiment three times under the identical condition.

HaCaT cells = assay: Quantification of number of viable HaCaT cells (alamarBlue); settings: for fluorescence intensity of alamarBlue: 1 μM
Description: (§2) Human epidermal-derived HaCaT cells (H. Hans, et al., Experimental Cell Research, 239:399 (1998)) and human keratinocyte-derived KC cells (Sanko Junyaku Co., Ltd., manufacturer: LONZA Walkersville Inc.) were used. The cells were inoculated to a 24-well plate to have 4×10^4 cells per well. The cells were then cultured for 24 hours in a medium for cell culture (D-MEM (1 g/L glucose), manufactured by Wako Pure Chemical Industries, Ltd.) to which 0.1% bovine serum albumin (BSA) is supplemented (hereinafter, referred to as a “standard medium”) in a 5% CO2 and saturated water vapor atmosphere at 37° C. (degrees Celsius).
(§3) D-hydroxyproline used in this example was 4-cis-D-hydroxyproline.
(§4) After collecting the culture medium, the cells were washed with PBS and added with alamarBlue (trademark: Biosource International, Inc.) to have final concentration of 10%. Two hours later, according to the methods by Ahmed S. A. et al., (J. Immunol. Method., 170, 211-224 (1994)) and the instructions provided by the manufacturer, fluorescent intensity of the alamarBlue solution was measured with excitation wavelength of 544 nm and emission wavelength of 590 nm.

[3] = system: laminin-332 production in KC cells; assay: Laminin-332 production in KC cells (sandwich ELISA of culture supernatant, relative to cell number); assay type: cell-based, human; settings: 1 μM; for relative value of laminin-332 concentration compared to the number of cells: 24 hours, negative control 0.35
Description: as §2, §3
PBS was used as a control.
as §4

KC cells = assay: Quantification of number of viable KC cells (alamarBlue); assay type: cell-based, human; settings: for relative fluorescence intensity of alamarBlue: 1 μM, 24 hours, negative control 50; for cytotoxicity against KC cells: alamarBlue, no significant difference to negative control by Tukey-Kramer's test
Description: as §2, §3, §4

[4] = HaCaT cells, 24 hours, negative control 300
[5] = HaCaT cells, alamarBlue, no significant difference to negative control by Tukey-Kramer's test

SMILES: N[C@@H](CO)C(=O)O [L-serine]
- stimulation of the production of laminin-332 (in words) [1]: do not stimulate the production of laminin-332
- concentration of laminin-332 in the culture supernatant ([1]; amino acid 10 nM): 1.8 ng/mL
- concentration of laminin-332 in the culture supernatant ([1]; amino acid 100 nM): 1.9 ng/mL
- concentration of laminin-332 in the culture supernatant ([1]; amino acid 1000 nM): 1.9 ng/mL

SMILES: O=C(O)[C@@H]1C[C@@H](O)CN1 [L-hydroxyproline]
- concentration of laminin-332 in the culture supernatant ([1]; amino acid 10 nM): 1.5 ng/mL
- concentration of laminin-332 in the culture supernatant ([1]; amino acid 100 nM): 2.3 ng/mL
- concentration of laminin-332 in the culture supernatant ([1]; amino acid 1000 nM): 2.7 ng/mL
- relative value of laminin-332 concentration compared to the number of cells [2]: 0.05
- fluorescence intensity of alamarBlue (HaCaT cells; [4]): 280
- cytotoxicity for HaCaT cells (HaCaT cells; [5]): no cytotoxicity

SMILES: N[C@H](CC(=O)O)C(=O)O [D-aspartic acid]
- stimulation of the production of laminin-332 (in words) [1]: do not stimulate the production of laminin-332
- concentration of laminin-332 in the culture supernatant ([1]; amino acid 10 nM): 1.9 ng/mL
- concentration of laminin-332 in the culture supernatant ([1]; amino acid 100 nM): 1.9 ng/mL
- concentration of laminin-332 in the culture supernatant ([1]; amino acid 1000 nM): 1.7 ng/mL

SMILES: N[C@@H](CC(=O)O)C(=O)O [L-aspartic acid]
- stimulation of the production of laminin-332 (in words) [1]: do not stimulate the production of laminin-332
- concentration of laminin-332 in the culture supernatant ([1]; amino acid 10 nM): 1.8 ng/mL
- concentration of laminin-332 in the culture supernatant ([1]; amino acid 100 nM): 1.8 ng/mL
- concentration of laminin-332 in the culture supernatant ([1]; amino acid 1000 nM): 2.0 ng/mL

SMILES: O=C(O)[C@@H]1CCCN1 [L-proline]
- stimulation of the production of laminin-332 (in words) [1]: do not stimulate the production of laminin-332
- concentration of laminin-332 in the culture supernatant ([1]; amino acid 10 nM): 1.8 ng/mL
- concentration of laminin-332 in the culture supernatant ([1]; amino acid 100 nM): 1.9 ng/mL
- concentration of laminin-332 in the culture supernatant ([1]; amino acid 1000 nM): 1.9 ng/mL

SMILES: C[C@H](N)C(=O)O [L-alanine]
- concentration of laminin-332 in the culture supernatant ([1]; amino acid 10 nM): 1.7 ng/mL
- concentration of laminin-332 in the culture supernatant ([1]; amino acid 100 nM): 2.3 ng/mL
- concentration of laminin-332 in the culture supernatant ([1]; amino acid 1000 nM): 2.8 ng/mL
- relative value of laminin-332 concentration compared to the number of cells [3]: 0.40
- relative value of laminin-332 concentration compared to the number of cells [2]: 0.07
- relative fluorescence intensity of alamarBlue (KC cells): 40
- cytotoxicity against KC cells (KC cells): no cytotoxicity
- cytotoxicity for HaCaT cells (HaCaT cells): no cytotoxicity
- fluorescence intensity of alamarBlue (HaCaT cells; human, 24 h): 250

SMILES: NC(=O)C[C@@H](N)C(=O)O [D-asparagine]
- stimulation of the production of laminin-332 (in words) [1]: do not stimulate the production of laminin-332
- concentration of laminin-332 in the culture supernatant ([1]; amino acid 10 nM): 1.5 ng/mL
- concentration of laminin-332 in the culture supernatant ([1]; amino acid 100 nM): 1.5 ng/mL
- concentration of laminin-332 in the culture supernatant ([1]; amino acid 1000 nM): 1.5 ng/mL

SMILES: N[C@H](CO)C(=O)O [D-serine]
- stimulation of the production of laminin-332 (in words) [1]: do not stimulate the production of laminin-332
- concentration of laminin-332 in the culture supernatant ([1]; amino acid 10 nM): 1.8 ng/mL
- concentration of laminin-332 in the culture supernatant ([1]; amino acid 100 nM): 1.8 ng/mL
- concentration of laminin-332 in the culture supernatant ([1]; amino acid 1000 nM): 1.8 ng/mL

SMILES: O=C(O)[C@H]1CCCN1 [D-proline]
- stimulation of the production of laminin-332 (in words) [1]: do not stimulate the production of laminin-332
- concentration of laminin-332 in the culture supernatant ([1]; amino acid 10 nM): 2.0 ng/mL
- concentration of laminin-332 in the culture supernatant ([1]; amino acid 100 nM): 1.9 ng/mL
- concentration of laminin-332 in the culture supernatant ([1]; amino acid 1000 nM): 1.9 ng/mL

SMILES: O=C(O)[C@H]1C[C@@H](O)CN1 (relative stereo) [D-hydroxyproline, 4-cis-D-hydroxyproline]
- effect on stimulating production of laminin-332 (conclusion in words) [1]: effect on stimulating production of laminin-332 was observed
- concentration of laminin-332 in the culture supernatant ([1]; amino acid 10 nM): 1.5 ng/mL
- concentration of laminin-332 in the culture supernatant ([1]; amino acid 100 nM): 3.3 ng/mL
- concentration of laminin-332 in the culture supernatant ([1]; amino acid 1000 nM): 4.4 ng/mL
- relative value of laminin-332 concentration compared to the number of cells [2]: 0.065
- fluorescence intensity of alamarBlue (HaCaT cells; [4]): 280
- cytotoxicity for HaCaT cells (HaCaT cells; [5]): no cytotoxicity

SMILES: C[C@@H](N)C(=O)O [D-alanine]
- effect on stimulating production of laminin-332 (conclusion in words) [1]: effect on stimulating production of laminin-332 was observed
- concentration of laminin-332 in the culture supernatant ([1]; amino acid 10 nM): 1.7 ng/mL
- concentration of laminin-332 in the culture supernatant ([1]; amino acid 100 nM): 3.4 ng/mL
- concentration of laminin-332 in the culture supernatant ([1]; amino acid 1000 nM): 4.8 ng/mL
- relative value of laminin-332 concentration compared to the number of cells [3]: 0.50
- stimulation of laminin-332 production in KC cells (in words) ([3]; p less than 1% vs negative control by Tukey-Kramer's test): stimulated production of laminin-332
- relative value of laminin-332 concentration compared to the number of cells [2]: 0.11
- stimulation of laminin-332 production in HaCaT cells (in words) ([2]; p less than 1% vs negative control by Scheffe's F test): stimulated production of laminin-332
- relative fluorescence intensity of alamarBlue (KC cells): 45
- cytotoxicity against KC cells (KC cells): no cytotoxicity
- cytotoxicity for HaCaT cells (HaCaT cells): no cytotoxicity
- fluorescence intensity of alamarBlue (HaCaT cells; human, 24 h): 250

SMILES: NC(=O)C[C@H](N)C(=O)O [L-asparagine]
- stimulation of the production of laminin-332 (in words) [1]: do not stimulate the production of laminin-332
- concentration of laminin-332 in the culture supernatant ([1]; amino acid 10 nM): 1.6 ng/mL
- concentration of laminin-332 in the culture supernatant ([1]; amino acid 100 nM): 1.5 ng/mL
- concentration of laminin-332 in the culture supernatant ([1]; amino acid 1000 nM): 1.6 ng/mL
